Read-outs that look alike come from different tables or passages of the source.
Experiments:
[1] = tested on: mouse CCI model of neuropathic pain; type: in vivo; conditions: for minimal effective dose (at 4 hrs): von Frey, 4 hrs post-dose
Text: The Chronic Constriction Injury (CCI) model of neuropathic pain involves unilateral loose ligation of four ligatures around the left sciatic nerve at mid-thigh level spaced 1 mm apart (Chaplan S R, et al J Neurosci Methods. 1994 July; 53(1):55-63). This procedure results in the development of hyperalgesia, allodynia and spontaneous pain (ectopic discharges) which can be measured using mechanical and thermal behavioural assessments. […] The mouse CCI model of neuropathic pain differs from that of the rat by virtue of 3 ligatures around the sciatic nerve instead of 4.
Static mechanical tactile allodynia: Static mechanical (tactile) allodynia was assessed by measurement of withdrawal threshold using calibrated (force; g) von-Frey monofilaments (Touch-Test Sensory Evaluator; Scientific Marketing Associates) applied to the plantar surface of the hindpaw. The animals were placed in individual Perspex boxes on a raised metal mesh for 30-40 min before the test. A series of graduated von Frey hairs (0.07, 0.16, 0.4, 0.6 and 1 g) was applied in sequence with a protocol of 1 sec on 1 sec off repeated 10 times. Each hair was applied perpendicularly to the centre of the ventral surface of the paw until it bent slightly. The force applied to the hind-paw of the animal to induce 5 responses out of 10 trials was recorded as paw withdrawal threshold (PWT).
Baseline PWT was assessed on three consecutive days (Day-2, Day-1 and Day 0) and the mean of the last two readings used as the baseline withdrawal threshold.
On Day 1, neuropathic pain was induced via ligation of the sciatic nerve using three loose ligatures of prolene sutures (Chronic Constriction Injury). Under Isoflurane anaesthesia mixed with oxygen (3:1, 1 L/min) the left hind leg was shaved mid-thigh level and an incision made through the skin using a scalpel. The biceps femoris muscle layer was dissected by making an initial incision using a pair of sharp scissors, which was then widened using a pair of blunt scissors. The common sciatic nerve was exposed using a pair of forceps and 3 loose ligatures of prolene (7-0, Ethicon) were tied around the sciatic nerve with 1 mm spacing between each. The nerve was then returned below the muscle layer and the wound closed using absorbable sutures (Vicryl).
Von Frey assessment of mechanical allodynia was taken on days 19 and 22. Animals were then ranked and randomised (based on a Latin square design) to treatment groups according to the percentage change (compared to pre-surgery baseline) of the mean mechanical withdrawal threshold observed on days 19 and 22. Only those animals showing a PWT percentage change of >60% from pre-surgery baseline were included in the study.
Dosing took place on day 23 with either vehicle, test compound (i.p.) or Pregabalin (15 mg/kg p.o.) at 10 ml/kg. Allodynia was then assessed at intervals thereafter e.g. 2, 4 and 24 hours post dose. von Frey measurement continued until activity disappeared up to day 27.
For studies involving a repeat administration, dosing took place on day 23 with either vehicle, test compound (i.p.) or Pregabalin (15 mg/kg p.o.) at 10 mL/kg. Allodynia was then assessed at intervals thereafter e.g. 4, 24 and 48 hours post dose. Animals were re-dosed at 68, 116, 164, 212, 260, 308 hours, with von Frey measurements conducted 4 hrs after each administration. Allodynia was therefore measured at 72, 120, 168, 216, 264, and 312 hours post initial dose, equating to repeat dosing 2, 3, 4, 5, 6 and 7 times, respectively
Evaluation of study & Statistical analysis: vF withdrawal threshold (g) was assessed by a series of graduated von Frey hairs (0.07, 0.16, 0.4, 0.6 and 1 g) applied in sequence to the ipsilateral hindpaw with a protocol of 1 sec on 1 sec off repeated 10 times. Each hair was applied perpendicularly to the centre of the ventral surface of the paw until it bent slightly. […]

GALR2 = molecular target: T1, GALR2 (Homo sapiens, UniProt O43603); test: Calcium assay, CHO GalR2 cells (FLIPR); conditions: mean +/− standard deviation; for GalR2 Calcium, mean pEC50: Table 2, n ≥ 3; for GalR2 activity (calcium assay), warhead length: Table 6
T1 sequence (O43603 1-387): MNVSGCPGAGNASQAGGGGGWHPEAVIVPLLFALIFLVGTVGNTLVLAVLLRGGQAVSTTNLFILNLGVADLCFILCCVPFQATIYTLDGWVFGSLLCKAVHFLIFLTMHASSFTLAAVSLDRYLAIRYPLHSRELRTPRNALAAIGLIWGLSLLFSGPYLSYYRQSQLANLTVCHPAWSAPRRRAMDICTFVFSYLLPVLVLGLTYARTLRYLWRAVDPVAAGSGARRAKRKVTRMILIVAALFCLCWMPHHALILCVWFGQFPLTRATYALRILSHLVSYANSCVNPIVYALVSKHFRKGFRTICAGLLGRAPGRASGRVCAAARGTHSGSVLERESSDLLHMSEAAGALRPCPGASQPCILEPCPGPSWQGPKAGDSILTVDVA
Experimental: CHO GalR2 cells were plated at 10,000 cells per well in black clear bottom plates (corning, USA) and incubated overnight at 37° C. with 5% CO2. […] Ligands were prepared at a 5× concentration and added to cells using the FLIPR (Molecular Devices, USA). Baseline was typically 20 seconds before ligand addition. […] For analysis, fluorescence was normalised to pre-addition baseline and peak fluorescence used for all quantification.
In brief, a panel of functional cell-based microtiter-plate assays were developed using recombinant GalR1 and GalR2 receptors stably expressed in CHO cells. […] Nominally this equated to 10 serial (~3fold) dilutions with highest concentrations of 10-1 μM as appropriate.
In addition to generating both potency and efficacy estimates, the latter being expressed relative to native galanin, both G-protein and non-G-Protein signalling pathways were measured.

[2] = tested on: mouse CFA model of inflammatory pain; test: CFA-induced inflammatory pain model, weight bearing; type: in vivo
Text: Intraplantar injection of Complete Freunds adjuvant (CFA) causes an inflammatory reaction which induces hypersensitivity and oedema and mimics some aspects of clinical inflammatory pain. These effects can be investigated using equipment to measure the […]. Naive mice distribute their body weight equally between the two hind paws. When the injected hind paw is inflamed and/or painful, the weight is re-distributed so that less weight is put on the affected paw (decrease in weight bearing on injured paw). Weight bearing through each hind limb is measured using an incapacitance tester (Linton Instruments, UK).
Environmental conditions: Animals were housed in standard caging and laboratory conditions in groups of 2-5, with free access to food (5CR4, Purina) and water (except during placement in the incapacitance box) on a 12/12 light/dark cycle. […] Weight bearing: Mice were placed in the incapacitance tester with the hind paws on separate sensors and the average force exerted by both hind limbs was recorded over 2 seconds. […] Prior to test compound treatment, weight bearing readings were taken to assess baseline hypersensitivity 23 hours post-CFA. […] Weight bearing was then assessed at 4, 24, 48 and 72 hours post-test compound treatment.
Weight bearing (g) readings were taken for both right and left hind paws and the difference calculated. […]

[3] = highest concentration tested 10 μM

Row | Substance | effect on withdrawal threshold, low dose ([1]; 0.03 mg/kg i.p., 4 hours) | effect on withdrawal threshold, low dose ([1]; 0.1 mg/kg, 24 hours) | effect-desensitisation on repeat administration ([1]; 0.3 and 1 mg/kg i.p., re-dosed days 3-13) | minimal effective dose (at 4 hrs) ([1]; mouse CCI) [mg/kg i.p.] | duration of statistically significant reversal of mechanical hyperalgesia ([1]; mouse CCI, highest and lowest doses tested) | Minimum Effective Dose [MED] ([1]; mouse CCI, multiple studies taken collectively) [mg/kg i.p.] | sustained reversal on repeat dosing, duration ([1]; mouse CCI, repeat dosing) [days] | minimal effective dose ([1]; mouse CCI, study with 1, 3, 10 and 30 mg/kg i.p.) [mg/kg i.p.] | sedation (observational during testing) ([1]; mouse, in vivo) | GalR2 Calcium, mean pEC50 (GALR2) | GalR2 activity (calcium assay), warhead length (GALR2; [3]) | GalR2 activity (calcium assay), linker variants (GALR2; Table 7, highest concentration tested 10 μM) | MED, reversal of hyperalgesia induced by CFA [2] [mg/kg i.p.] | duration of reversal of hyperalgesia induced by CFA [2] [h] | reversal of CCI-induced mechanical hyperalgesia ([1]; 3, 10 and 30 mg/kg i.p., 2 and 4 hrs) | effect on CCI-induced mechanical hyperalgesia at 24 hrs ([1]; 24 hrs, any of the doses tested (1-30 mg/kg i.p.))
1 | Gal2-13FC: galanin 2-13, AEAAAKEAAAKA linker, human IgG1 FC; SEQ ID NO: 7 | effective | statistically significant | no loss of effect | 0.03 | up to 96 hrs post-dose | ≤ 0.03 | ≥ 13 | ≤ 1 | not associated with overt sedation | 6.3 +/− 0.3 | 6.4 +/− 0.1 | 6.4 +/− 0.1 | ≤ 1 | ≥ 72 | – | –
2 | Gal2-30FC: galanin 2-30, AEAAAKEAAAKA linker, human IgG1 FC; SEQ ID NO: 28 | – | – | – | 3 | – | – | – | – | – | 6.6 +/− 0.3 | 6.8 +/− 0.1 | – | – | – | efficacious and reversed CCI-induced mechanical hyperalgesia | not at 24 hrs

Reference: US20260209301A1, “Galanin-2 Receptor Agonists” (LIFEARC, priority 2022, published 2026)
